The values below come from patent US20080200454A1, “CARBON-LINKED TETRAHYDRO-PYRAZOLO-PYRIDINE MODULATORS OF CATHEPSIN S” (priority 2007, published 2008).

The target in one experiment is Recombinant human cathepsin S (CatS) (Homo sapiens, UniProt P25774). Briefly: Recombinant human cathepsin S (CatS) inhibition assay, fluorogenic substrate Z-Valine-Valine-Arginine-AMC.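 Also: Baculovirus-expressed CatS in pH 5.0 sodium acetate buffer with DTT and NaCl, fluorescence read each minute over 20 min, inhibition derived from rate slope.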
Recombinant human cathepsin S (CatS), sequence (P25774 115-331): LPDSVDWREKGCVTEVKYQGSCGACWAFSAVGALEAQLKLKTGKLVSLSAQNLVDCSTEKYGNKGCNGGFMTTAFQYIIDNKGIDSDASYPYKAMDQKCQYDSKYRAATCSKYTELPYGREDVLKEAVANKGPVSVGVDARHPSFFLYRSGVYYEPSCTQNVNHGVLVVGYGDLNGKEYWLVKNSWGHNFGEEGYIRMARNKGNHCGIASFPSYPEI
Settings: not given
One may read the IC50 as the midpoint of a concentration-inhibition curve. In the case of `CCOC(=O)C1CCN(CCCn2nc(-c3ccc(Cl)c(C#Cc4ccc(CNCc5ccc(Cl)cc5)cc4)c3)c3c2CCN(S(C)(=O)=O)C3)CC1` [Example 334, Ethyl 1-{3-[3-(4-chloro-3-{[4-({[(4-chlorophenyl)methyl]amino}methyl)phenyl]ethynyl}phenyl)-5-(methylsulfonyl)-4,5,6,7-tetrahydro-1H-pyrazolo[4,3-c]pyridin-1-yl]propyl}piperidine-4-carboxylate], the IC50 is 30 nM.

As for `CS(=O)(=O)N1CCc2c(c(-c3ccc(Cl)c(C#Cc4ccc(CNCc5ccc(Cl)cc5)cc4)c3)nn2CCCN2CCC3(CC2)OCCO3)C1` [Example 335, 1-{4-[(2-Chloro-5-{1-[3-(1,4-dioxa-8-azaspiro[4.5]dec-8-yl)propyl]-5-(methylsulfonyl)-4,5,6,7-tetrahydro-1H-pyrazolo[4,3-c]pyridin-3-yl}phenyl)ethynyl]phenyl}-N-[(4-chlorophenyl)methyl]methanamine], the IC50 was determined as 60 nM.

Consider `COc1ccc(CNCc2ccc(C#Cc3cc(-c4nn(CCCN5CCOCC5)c5c4CN(S(C)(=O)=O)CC5)ccc3Cl)cc2)cc1` [Example 339, 1-[4-({2-Chloro-5-[5-(methylsulfonyl)-1-(3-morpholin-4-ylpropyl)-4,5,6,7-tetrahydro-1H-pyrazolo[4,3-c]pyridin-3-yl]phenyl}ethynyl)phenyl]-N-{[4-(methyloxy)phenyl]methyl}methanamine], for which the IC50 is 230 nM.

Consider `CC(=O)NC1CCN(CCCn2nc(-c3ccc(Cl)c(C#Cc4ccc(CNCc5ccc(Cl)cc5)cc4)c3)c3c2CCN(S(C)(=O)=O)C3)CC1` [Example 346, N-(1-{3-[3-(4-Chloro-3-{[4-({[(4-chlorophenyl)methyl]amino}methyl)phenyl]ethynyl}phenyl)-5-(methylsulfonyl)-4,5,6,7-tetrahydro-1H-pyrazolo[4,3-c]pyridin-1-yl]propyl}piperidin-4-yl)acetamide], for which the IC50 stood at 20 nM.

For the compound `CS(=O)(=O)N1CCc2c(c(-c3ccc(Cl)c(C#Cc4ccc(CNCc5ccc(Cl)cc5)cc4)c3)nn2CCCN2CCC(C(N)=O)CC2)C1` [Example 350, 1-{3-[3-(4-Chloro-3-{[4-({[(4-chlorophenyl)methyl]amino}methyl)phenyl]ethynyl}phenyl)-5-(methylsulfonyl)-4,5,6,7-tetrahydro-1H-pyrazolo[4,3-c]pyridin-1-yl]propyl}piperidine-4-carboxamide], the IC50 worked out at 40 nM.

Turning to `COC(=O)[C@@H](NCc1ccc(C#Cc2cc(-c3nn(CCCN4CCOCC4)c4c3CN(S(C)(=O)=O)CC4)ccc2Cl)cc1)c1ccccc1` [Example 351, Methyl (2S)-({[4-({2-chloro-5-[5-(methylsulfonyl)-1-(3-morpholin-4-ylpropyl)-4,5,6,7-tetrahydro-1H-pyrazolo[4,3-c]pyridin-3-yl]phenyl}ethynyl)phenyl]methyl}amino)(phenyl)ethanoate], the IC50 amounted to 120 nM.

As for `CS(=O)(=O)N1CCc2c(c(-c3ccc(Cl)c(C#Cc4ccc(CN[C@@H](CO)c5ccccc5)cc4)c3)nn2CCCN2CCC(N3CCCC3=O)CC2)C1` [Example 352, 1-(1-{3-[3-(4-Chloro-3-{[4-({[(1R)-2-hydroxy-1-phenylethyl]amino}methyl)phenyl]ethynyl}phenyl)-5-(methylsulfonyl)-4,5,6,7-tetrahydro-1H-pyrazolo[4,3-c]pyridin-1-yl]propyl}piperidin-4-yl)pyrrolidin-2-one], the IC50 stood at 20 nM.

Still in this experiment, the particulars now being: CatS IC50.
As to `CS(=O)(=O)N1CCc2c(c(-c3ccc(Cl)c(C#Cc4ccc(CNCc5ccc(Cl)cc5)cc4)c3)nn2CCCN2CCC(C(=O)O)CC2)C1` [Example 336, 1-{3-[3-(4-Chloro-3-{[4-({[(4-chlorophenyl)methyl]amino}methyl)phenyl]ethynyl}phenyl)-5-(methylsulfonyl)-4,5,6,7-tetrahydro-1H-pyrazolo[4,3-c]pyridin-1-yl]propyl}piperidine-4-carboxylic acid], the IC50 stood at 150 nM.

In the case of `CS(=O)(=O)N1CCc2c(c(-c3ccc(Cl)c(C#Cc4ccc(CNCc5ccc(Cl)cc5)cc4)c3)nn2CCCN2CCC(CO)CC2)C1` [Example 337, (1-{3-[3-(4-Chloro-3-{[4-({[(4-chlorophenyl)methyl]amino}methyl)phenyl]ethynyl}phenyl)-5-(methylsulfonyl)-4,5,6,7-tetrahydro-1H-pyrazolo[4,3-c]pyridin-1-yl]propyl}piperidin-4-yl)methanol], the IC50 worked out at 70 nM.

For the compound `CS(=O)(=O)N1CCc2c(c(-c3ccc(Cl)c(C#Cc4ccc(CNCc5ccc(Cl)cc5)cc4)c3)nn2CCCN2CCC(N3CCCCC3=O)CC2)C1` [Example 338, 1′-{3-[3-(4-Chloro-3-{[4-({[(4-chlorophenyl)methyl]amino}methyl)phenyl]ethynyl}phenyl)-5-(methylsulfonyl)-4,5,6,7-tetrahydro-1H-pyrazolo[4,3-c]pyridin-1-yl]propyl}-1,4′-bipiperidin-2-one], the IC50 came out at 20 nM.

Take `CS(=O)(=O)N1CCc2c(c(-c3ccc(Cl)c(C#Cc4ccc(CNCC(F)(F)F)cc4)c3)nn2CCCN2CCOCC2)C1` [Example 340, N-{[4-({2-Chloro-5-[5-(methylsulfonyl)-1-(3-morpholin-4-ylpropyl)-4,5,6,7-tetrahydro-1H-pyrazolo[4,3-c]pyridin-3-yl]phenyl}ethynyl)phenyl]methyl}-2,2,2-trifluoroethanamine]: the IC50 worked out at 390 nM.

Regarding `CS(=O)(=O)N1CCc2c(c(-c3ccc(Cl)c(C#Cc4ccc(CNCC5CC5)cc4)c3)nn2CCCN2CCOCC2)C1` [Example 341, 1-[4-({2-Chloro-5-[5-(methylsulfonyl)-1-(3-morpholin-4-ylpropyl)-4,5,6,7-tetrahydro-1H-pyrazolo[4,3-c]pyridin-3-yl]phenyl}ethynyl)phenyl]-N-(cyclopropylmethyl)methanamine], the half-maximal inhibitory concentration (IC50) stood at 830 nM.

On to `CS(=O)(=O)N1CCc2c(c(-c3ccc(Cl)c(C#Cc4ccc(CN[C@H](CO)c5ccccc5)cc4)c3)nn2CCCN2CCOCC2)C1` [Example 342, (2S)-2-({[4-({2-Chloro-5-[5-(methylsulfonyl)-1-(3-morpholin-4-ylpropyl)-4,5,6,7-tetrahydro-1H-pyrazolo[4,3-c]pyridin-3-yl]phenyl}ethynyl)phenyl]methyl}amino)-2-phenylethanol], for which the IC50 was found to be 310 nM.

Take `CS(=O)(=O)N1CCc2c(c(-c3ccc(Cl)c(C#Cc4ccc(CNCc5ccc(Cl)cc5)cc4)c3)nn2CCCN2CCC(N3CCOCC3)CC2)C1` [Example 343, 1-{4-[(2-Chloro-5-{5-(methylsulfonyl)-1-[3-(4-morpholin-4-ylpiperidin-1-yl)propyl]-4,5,6,7-tetrahydro-1H-pyrazolo[4,3-c]pyridin-3-yl}phenyl)ethynyl]phenyl}-N-[(4-chlorophenyl)methyl]methanamine]: the IC50 came out at 40 nM.

For `CC1CCN(CCCn2nc(-c3ccc(Cl)c(C#Cc4ccc(CNCc5ccc(Cl)cc5)cc4)c3)c3c2CCN(S(C)(=O)=O)C3)CC1` [Example 344, 1-{4-[(2-Chloro-5-{1-[3-(4-methylpiperidin-1-yl)propyl]-5-(methylsulfonyl)-4,5,6,7-tetrahydro-1H-pyrazolo[4,3-c]pyridin-3-yl}phenyl)ethynyl]phenyl}-N-[(4-chlorophenyl)methyl]methanamine], the IC50 is 60 nM.

Take `CS(=O)(=O)N1CCc2c(c(-c3ccc(Cl)c(C#Cc4ccc(CNCc5ccc(Cl)cc5)cc4)c3)nn2CCCN2CCC(C(F)(F)F)CC2)C1` [Example 345, 1-[4-({2-Chloro-5-[5-(methylsulfonyl)-1-{3-[4-(trifluoromethyl)piperidin-1-yl]propyl}-4,5,6,7-tetrahydro-1H-pyrazolo[4,3-c]pyridin-3-yl]phenyl}ethynyl)phenyl]-N-[(4-chlorophenyl)methyl]methanamine]: the IC50 was 110 nM.

Turning to `COC(=O)CNCc1ccc(C#Cc2cc(-c3nn(CCCN4CCOCC4)c4c3CN(S(C)(=O)=O)CC4)ccc2Cl)cc1` [Example 347, Methyl N-{[4-({2-chloro-5-[5-(methylsulfonyl)-1-(3-morpholin-4-ylpropyl)-4,5,6,7-tetrahydro-1H-pyrazolo[4,3-c]pyridin-3-yl]phenyl}ethynyl)phenyl]methyl}glycinate], the IC50 was found to be 610 nM.

Consider `CS(=O)(=O)N1CCc2c(c(-c3ccc(Cl)c(C#Cc4ccc(CNCC(F)(F)F)cc4)c3)nn2CCCN2CCC(N3CCCC3=O)CC2)C1` [Example 348, 1-(1-{3-[3-{4-Chloro-3-[(4-{[(2,2,2-trifluoroethyl)amino]methyl}phenyl)ethynyl]phenyl}-5-(methylsulfonyl)-4,5,6,7-tetrahydro-1H-pyrazolo[4,3-c]pyridin-1-yl]propyl}piperidin-4-yl)pyrrolidin-2-one], for which the IC50 stood at 100 nM.

With `C=CCNCc1ccc(C#Cc2cc(-c3nn(CCCN4CCOCC4)c4c3CN(S(C)(=O)=O)CC4)ccc2Cl)cc1` [Example 349, N-{[4-({2-Chloro-5-[5-(methylsulfonyl)-1-(3-morpholin-4-ylpropyl)-4,5,6,7-tetrahydro-1H-pyrazolo[4,3-c]pyridin-3-yl]phenyl}ethynyl)phenyl]methyl}prop-2-en-1-amine], the half-inhibitory concentration (IC50) stood at 550 nM.

For `CC(=O)N1CCN(CCCn2nc(-c3ccc(Cl)c(C#Cc4ccc(CNCc5ccc(Cl)cc5)cc4)c3)c3c2CCN(S(C)(=O)=O)C3)CC1` [Example 353, 1-{4-[(5-{1-[3-(4-Acetylpiperazin-1-yl)propyl]-5-(methylsulfonyl)-4,5,6,7-tetrahydro-1H-pyrazolo[4,3-c]pyridin-3-yl}-2-chlorophenyl)ethynyl]phenyl}-N-[(4-chlorophenyl)methyl]methanamine], the IC50 is 150 nM.

In the case of `CN1CCN(CCCn2nc(-c3ccc(Cl)c(C#Cc4ccc(CNCc5ccc(Cl)cc5)cc4)c3)c3c2CCN(S(C)(=O)=O)C3)CC1` [Example 354, 1-{4-[(2-Chloro-5-{1-[3-(4-methylpiperazin-1-yl)propyl]-5-(methylsulfonyl)-4,5,6,7-tetrahydro-1H-pyrazolo[4,3-c]pyridin-3-yl}phenyl)ethynyl]phenyl}-N-[(4-chlorophenyl)methyl]methanamine], the IC50 is 360 nM.
